{"source": "patent US20110212948A1", "about": "(priority 2008, published 2011)", "key": {"[1]": {"settings": "current study, foals, single oral dose 0.6 mg/kg, mean ± SD"}, "[2]": {"settings": "adult horses, cited from earlier work"}, "[3]": {"assay": "Faecal occult blood testing with guaiac-based slides (Hemoccult Sensa)", "format": "in vivo", "settings": "treated and control foals, all occasions", "experimental": "Faecal occult blood testing using guaiac-based slides (Hemoccult Sensa, Beckman Coulter Australia Pty Ltd, Gladesville, NSW) was evaluated for the detection of gastrointestinal bleeding in treated and control foals. This technique has been reported as a sensitive method for identifying gastric or right dorsal colon ulceration in adult horses (Pellegrini 2005). Faecal samples were collected on DSP days from all foals and processed according to the manufacturer's instructions. Tests were negative for blood (haemoglobin) on all occasions."}, "[4]": {"assay": "Multiple dose study: peak and trough plasma meloxicam concentrations", "format": "in vivo, foals", "experimental": "Blood for ‘trough’ serum levels was collected from foals immediately prior to administration of morning treatment. ‘Peak’ plasma concentrations were determined from blood samples collected 2 hours following administration of the morning treatment (as per the schedule above)."}, "[5]": {"settings": "adult horses, cited from earlier work", "remark": "listed apart in the source"}, "[6]": {"settings": "in vivo, 0.6 mg/kg"}, "[7]": {"assay": "Multiple dose study: veterinary examination, haematology and serum biochemistry", "settings": "0.6 mg/kg every 12 hours for 14 days; except serum cholesterol", "protocol": "Six foals were available for inclusion in this part of the study and were randomly assigned to treatment (four foals) or control groups (two foals). […] To ensure foals were recruited into the study within 4 weeks of birth, the study was performed twice, with 2 treated and one control foal in each replicate.\nFoals were examined twice daily for the duration of the study. Staff responsible for veterinary examination of foals were blinded to treatment.\nPeripheral blood samples were submitted for routine haematology and serum biochemistry at a commercial laboratory (Idexx Laboratories, Rydalmere, NSW) twice weekly (treatment days 0, 2, 6, 9, 13 and 16). Gastroscopy and urine analysis (Dip Stik and urine enzyme analysis1) were performed weekly on all foals."}, "[8]": {"assay": "Multiple dose study: gastroscopy", "format": "in vivo, foals"}, "[9]": {"settings": "Bioequivalence study (CML039) Reference"}, "[10]": {"settings": "Bioequivalence study (CML039) Test"}}, "note": "Where two headings read alike, the source gives them in different places."}
{"smiles": "Cc1cnc(NC(=O)C2=C(O)c3ccccc3S(=O)(=O)N2C)s1", "note": "[meloxicam]", "values": [{"measurement": "Area under curve", "setting": "[1]", "value": 3870.3, "unit": "ng/mL/h"}, {"measurement": "Cmax", "setting": "[2]; Lees et al 1991 (IV administration)", "value": 9230, "unit": "ng/mL"}, {"measurement": "Area under curve", "setting": "[2]; Lees et al 1991", "value": 14530, "unit": "ng/mL/h"}, {"measurement": "Cmax", "setting": "[2]; Little et al 2007 (IV administration)", "value": 9780, "unit": "ng/mL"}, {"measurement": "Area under curve", "setting": "[2]; Little et al 2007", "value": 33440, "unit": "ng/mL/h"}, {"measurement": "Cmax (oral admin)", "setting": "[2]; Toutain et al 2004b", "value": 2580, "unit": "ng/mL"}, {"measurement": "Bioavailability (fasted)", "setting": "[2]; fasted, Toutain et al 2004b", "value": 85.3}, {"measurement": "Bioavailability (fed)", "setting": "[2]; fed, Toutain et al 2004b", "value": 95.9}, {"measurement": "Faecal occult blood (haemoglobin)", "setting": "[3]", "value": "negative"}, {"measurement": "Accumulation of drug in serum", "setting": "[4]; foals, 0.6 mg/kg by mouth every 12 hours for 14 days", "value": "did not appear to accumulate"}, {"measurement": "concentration at 14 days", "setting": "[4]; horse, in vivo, foals less than 6 weeks, 0.6 mg/kg by mouth every 12 hours", "value": "100 to 1000", "unit": "ng/mL"}, {"measurement": "concentration at 2 h", "setting": "[4]; horse, in vivo, foals, 0.6 mg/kg by mouth every 12 hours for 14 days, 2 h after morning dose, read-out: Peak serum concentrations with repeated dosing", "value": "500 to 1200", "unit": "ng/mL"}, {"measurement": "Area under curve", "setting": "[5]; [9]", "value": 10752.4, "unit": "ng/mL/h"}, {"measurement": "Cmax (oral admin)", "setting": "[5]; [9]", "value": 777.5, "unit": "ng/mL"}, {"measurement": "Tmax (oral admin)", "setting": "[5]; [9]", "value": 3.8, "unit": "h"}, {"measurement": "Area under curve", "setting": "[5]; [10]", "value": 11281.0, "unit": "ng/mL/h"}, {"measurement": "Tmax (oral admin)", "setting": "[5]; [10]", "value": 2.6, "unit": "h"}, {"measurement": "Adverse effects after a single oral dose (physical examination)", "setting": "[6]", "value": "no adverse effects"}, {"measurement": "Albumin, mean post-Tx (±sem)", "setting": "[6]; po", "value": "29 (±1) g/L"}, {"measurement": "Creatinine, median post-Tx", "setting": "[6]; po", "value": 0.09, "unit": "mmol/L"}, {"measurement": "Glucose, mean post-Tx (±sem)", "setting": "[6]; po", "value": "8.8 (±0.6) mmol/L"}, {"measurement": "Haemoglobin, mean post-Tx (±sem)", "setting": "[6]; po", "value": "123 (±4) g/L"}, {"measurement": "PCV, mean post-Tx (±sem)", "setting": "[6]; po", "value": "35 (±1) %"}, {"measurement": "Potassium, median post-Tx", "setting": "[6]; po", "value": 4.0, "unit": "mmol/L"}, {"measurement": "Sodium, mean post-Tx (±sem)", "setting": "[6]; po", "value": "138 (±1) mmol/L"}, {"measurement": "Urea, mean post-Tx (±sem)", "setting": "[6]; po", "value": "2.1 (±0.1) mmol/L"}, {"measurement": "Haematology and serum biochemistry, treated vs control foals", "setting": "[7]", "value": "no significant differences"}, {"measurement": "Gastroscopy finding, margo plicatus of a treated foal (FIG. 18)", "setting": "[8]; Day 7 of multiple dose study", "value": "normal margo plicatus"}, {"measurement": "Gastroscopy finding, treated foal F8 (FIG. 21)", "setting": "[8]; Day 7 of multiple dose study, erythemia already present before single dose", "value": "superficial erosions of squamous mucosa"}, {"measurement": "Gastroscopy finding, margo plicatus of same treated foal (FIG. 19)", "setting": "[8]; Day 14 of multiple dose study", "value": "small, well circumscribed and very superficial ulcer"}, {"measurement": "Gastric mucosal damage on gastroscopic examination", "setting": "[8]; all foals, 0.6 mg/kg every 12 hours for 14 days", "value": "failed to identify evidence of significant gastric mucosal damage"}, {"measurement": "Gastroscopy finding, treated foal F8 (FIG. 22)", "setting": "[8]; following 14 days of treatment", "value": "no evidence of ongoing mucosal ulceration"}]}
